We go through 1 molecule from ChEMBL document CHEMBL1149011, “Pulcherralpin, a new diterpene ester from Caesalpinia pulcherrima” (J Nat Prod, 1986).

Molecules are shown by their SMILES. Active and inactive are the calls of the source. The rule behind the calls is not given here.

Assay [1] deals with KB. Nature of the assay: Cytotoxicity against human KB cells. Type of assay: functional, cell-based.
Assay [2] relates to P388. Nature of the assay: Cytotoxicity against mouse P388 cells. Type of assay: functional, cell-based.

Take `COC(=O)C[C@@H]1C(=O)C[C@H]2[C@H]([C@H]1C)[C@@H](O)[C@@H](OC(=O)/C=C/c1ccccc1)[C@@]1(O)C(C)(C)CCC[C@]21C`: the result in assay [1] and in assay [2] was inactive.
